Results from PubChem BioAssay (NCI).
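These data come from cells grown in 96-well plates and exposed to compound for 48 hours at five concentrations. At the GI50, growth is halved. The concentration for full growth arrest is given as TGI.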

Legend:
Assay in all cases: NCI anticancer screen, dose series, 48 h
[1] = tested on: HT29 colon
[2] = tested on: RPMI-8226 leukemia
[3] = tested on: 786-0 renal
[4] = tested on: SK-MEL-28 melanoma
[5] = tested on: SK-OV-3 ovarian
[6] = tested on: M14 melanoma
[7] = tested on: MDA-MB-435
[8] = tested on: RXF 393 renal
[9] = tested on: NCI-H226 lung
[10] = tested on: LOX IMVI melanoma

Row | SMILES | GI50 [1] [µM] | TGI [1] [µM] | GI50 [2] [µM] | TGI [2] [µM] | GI50 [3] [µM] | TGI [3] [µM] | GI50 [4] [µM] | TGI [4] [µM] | GI50 [5] [µM] | TGI [5] [µM] | GI50 [6] [µM] | TGI [6] [µM] | GI50 [7] [µM] | TGI [7] [µM] | GI50 [8] [µM] | TGI [8] [µM] | GI50 [9] [µM] | TGI [9] [µM] | GI50 [10] [µM] | TGI [10] [µM]
1 | CCCCC(=O)N/N=C/c1c(O)ccc2ccccc12 | 27.5 | > 100 | 0.247 | 1.57 | 3.65 | > 59.2 | 2.16 | > 52.2 | 3.04 | > 100 | 1.82 | 14.6 | 4.37 | > 100 | 2.01 | 15.9 | 13.7 | > 70.4 | 1.15 | > 31.8
2 | O=[n+]1c2ccccc2n([O-])c2cc(Cl)ccc21 | 3.6 | 13.5 | 2.45 | 5.98 | 3.12 | 13.4 | 16.4 | 97.4 | 7.12 | 20.4 | 10.7 | 29.9 | 11.3 | 23.7 | 3.03 | 10 | 7.32 | 25.6 | 2.83 | 11.9
3 | Cc1ccc(C2=Nc3c(N)ncnc3NC(c3ccc4c(c3)OCO4)C2)cc1 (stereo unspecified) | 3.81 | 33.9 |  |  | > 100 | > 100 | 10.2 | 38 | 15.8 | 52.3 | > 100 | > 100 | 1.15 | 4.12 | 3.5 | 23.1 | 12.6 | 47.9 | 6.38 | 25
4 | CCc1cc2ncc(CN3CCN(c4ccc(C(=O)NC)nc4)CC3)cc2[nH]c1=O | 48.2 | > 100 | 40.4 | > 100 | 79.6 | > 100 | > 100 | > 100 | > 100 | > 100 | 92.4 | > 100 | 85.8 | > 100 | 17 | > 100 | 14.7 | > 100 | 60 | > 100
5 | Cc1[nH]c(-c2nc3ccccc3[nH]2)c(C)c1C(=O)NC(C)C1CCCCC1 (stereo unspecified) | 4.89 | 38.2 | 4.35 | 17.7 | 14.8 | 32.2 | 10.4 | 23.5 | 15.3 | 34.4 | 3.28 | 17.8 | 2.29 | 5.85 | 3.17 | 11 | 13.9 | 37.3 | 10 | 29.7
6 | CCOC(=O)c1c(C)nc2c(c1N)CC(=O)N2CCc1ccccc1 | 0.327 | 14.5 | 0.345 | 5.6 | 0.466 | 17.1 | 2.35 | 12.1 | 8.46 | 36.7 | 0.845 | 3.47 | 0.354 | 15.4 | 4.05 | 15.3 | 18.7 | 69 | 0.384 | 14.7
7 | O=c1c(NO)c([N+](=O)[O-])cnn1-c1ccccc1 |  | 6.14 |  | 34 |  | 12.7 |  | 8.87 |  | 13.3 |  | 4.09 |  | 3.34 |  | 12.3 |  | 16.5 |  | 3.66
8 | O=C1C(=O)c2ccccc2C(O)=C1CCCc1ccc(C2CCCCCC2)cc1 | 4.6 | 27.8 | 0.463 | 13.9 | 0.465 | 17 | 5.04 | > 93.3 | 2.85 | 54.6 | 1.86 | 21 | 0.608 | 48.2 | 10.2 | 41.7 | 2.2 | 31.7 | 0.322 | 10.5
9 | NCCOc1ccccc1/C=C1\c2ccccc2-c2ccc([N+](=O)[O-])cc21 | 1.42 | 2.84 | 1.79 | 3.63 | 1.7 | 3.23 | 1.75 | 3.18 | 1.7 | 3.13 | 1.65 | 3.02 | 1.68 | 3.09 | 1.6 | 3.1 | 1.73 | 3.48 | 1.33 | 2.66
10 | CN1CCN(c2nc(NCCCNc3ccnc4cc(Cl)ccc34)c3ccccc3n2)CC1 | 3.33 | 9.87 | 1.8 | 7.69 | 3.58 | 12.9 | 2.17 | 4.22 | 6.46 | 22.5 | 1.89 | 3.77 | 2.09 | 4.33 | 1.49 | 3.72 | 18.9 | 41.4 | 1.96 | 4.2
11 | COc1cc(N2CCN(C(C)C)CC2)ccc1Nc1nc(Nc2cccc(F)c2C(=O)O)c2cc[nH]c2n1 | > 25 | > 25 | > 25 | > 25 | > 25 | > 25 | > 25 | > 25 | > 25 | > 25 | > 25 | > 25 | > 25 | > 25 | > 25 | > 25 | > 25 | > 25 | > 25 | > 25
12 | CN(C)CC(C(=O)Cc1ccccc1)c1ccccc1 (stereo unspecified) |  |  | 0.444 | 3.17 | 2.18 | 4.51 | 3.22 | 10.2 | 18.4 | 36.2 | 2.34 | 4.97 | 3.09 | 12.2 | 2.39 | 4.86 | 13.8 | 38.3 | 1.39 | 3.04
